Measurements from PubChem BioAssay AID2060502 (Molecular Pharmacology Branch, DTP, NCI, 2025).

Tested on: 885724-159-R-J1-PDC complex spheroid viability
Assay: Anticancer human tumor 885724-159-R-J1-PDC patient-derived pancreatic adenocarcinoma cell line growth inhibition [GQUAD]
Conditions: for IC50: curve of first compound; for viability, T/C: stronger effect = lower value
Text: DNA G-quadruplex Stabilizer Agents in Combinations in Complex Spheroids
A high-throughput screen of multi-cell type tumor spheroids was designed to identify active combinations of DNA G-quadruplex stabilizer agents and targeted small molecules. Complex spheroids include a stromal component modeled by human endothelial cells (HUVEC) and fibroblasts modeled by human mesenchymal stem cells (MSCs). The concentration ranges selected for each drug and investigational agent were based upon clinically achievable concentrations if the clinical Cmax of the agent was known.
Compounds. The drugs and investigational agents: pidnarulex (CX-5461; NSC782164), APTO-253 (NSC789042), BRACO-19 (NSC847499), peposertib (NSC802822), ceralasertib (NSC780249), elimusertib (NSC800525), camonsertib (NSC841442), AZD-1390 (NSC803789), olaparib (NSC753686), talazoparib (NSC767125), ART-558 (NSC835418), sotorasib (NSC818433), MRTX-1133 (NSC836407), SN-38 (NSC673596), topotecan (NSC609699), etoposide (NSC141540), doxorubicin (NSC123127), gemcitabine (NSC613327), 5-fluorouracil (NSC19893), paclitaxel (NSC125973), vemurafenib (NSC761431), panobinostat (NSC761190), R-306465 (JNJ-16241199; NSC773264), adavosertib (NSC754352), TP-3654 (NSC805149), carboplatin (NSC241240), KSQ-4279 (NSC840948), and staurosporine (NSC755774) were obtained from the National Cancer Institute (NCI) Developmental Therapeutics Program Chemical Repository (34). The FDA-approved anticancer drug set is available from the NCI Developmental Therapeutics Program. […] The stock solutions were prepared in dimethyl sulfoxide (DMSO, Sigma-Aldrich, St. Louis, MO, cat. D2650) at 800-fold the tested concentration and stored at -70 degrees C prior to their use. All drugs and investigational agents were tested over a range starting from a high concentration at or near the clinical Cmax and decreasing in half-log increments. If the clinical Cmax for an agent had not been determined, the highest concentration tested was 10 microM.
2.3 Cell Culture. All cells were maintained in an incubator at 37 degrees C and 5% CO2 with 95% humidity. The PDC lines were cultured according to standard operating procedures established by the NCI PDMR. All PDCs were thawed and cultured in Matrigel-coated flasks prepared with a working solution of 1X Ham's F-12 nutrient mix, without supplementation (Invitrogen, cat. 11765054), 100 U/mL penicillin-streptomycin (Invitrogen, cat. 15140122), and 2.5% Matrigel (Corning Inc., cat. 354248) for the first three passages. The 857933-349-R-J2-PDC line was cultured in 6C/Colon 1B media, which includes advanced DMEM/F-12 (Thermo Fisher Scientific, cat. 12634028), 10 mM HEPES (Thermo Fisher Scientific, cat. 15630080), 1X GlutaMAX supplement (Thermo Fisher Scientific, cat. 35050061), 0.1 mg/mL primocin (InvivoGen, cat. ant-pm-2), 10% defined fetal bovine serum, heat inactivated (HyClone Laboratories Inc., cat. SH30070.03HI), 50% L-WRN conditioned media (ATCC, cat. CRL-3276), 1.25 mM N-Acetyl-L-cysteine (Sigma-Aldrich, cat. A9165), 10 mM nicotinamide (Sigma-Aldrich, cat. N0636), 1X B-27 supplement (Thermo Fisher Scientific, cat. 17504044), 1X N-2 supplement (Thermo Fisher Scientific, cat. 17502048), 10 microM Y-27632 dihydrochloride (Tocris Bioscience, cat. 1254), and 50 ng/mL human EGF recombinant protein (Thermo Fisher Scientific, cat. PHG0311). The 485176-168-R4-J1-PDC line was cultured in Panc media, which includes all 6C/Colon 1B media components plus 100 ng/mL human FGF-10 (Thermo Fisher Scientific, cat. 100-26), 500 nM SB-431542 (Selleckchem, cat. S1067), and gastrin (Tocris, cat. 3006).
[…]

[1] = second compound 0.0316 µM, first compound 0.0316 µM
[2] = second compound 0.0316 µM, first compound 0.1 µM
[3] = second compound 0.0316 µM, first compound 0.316 µM
[4] = second compound 0.0316 µM, first compound 1 µM
[5] = second compound 0.0316 µM, first compound 3.16 µM
[6] = second compound 0.0316 µM, first compound 10 µM
[7] = second compound 0.1 µM, first compound 0.0316 µM
[8] = second compound 0.1 µM, first compound 0.1 µM
[9] = second compound 0.1 µM, first compound 0.316 µM
[10] = second compound 0.1 µM, first compound 1 µM
[11] = second compound 0.1 µM, first compound 3.16 µM
[12] = second compound 0.1 µM, first compound 10 µM
[13] = second compound 0.316 µM, first compound 0.0316 µM
[14] = second compound 0.316 µM, first compound 0.1 µM
[15] = second compound 0.316 µM, first compound 0.316 µM
[16] = second compound 0.316 µM, first compound 1 µM
[17] = second compound 0.316 µM, first compound 3.16 µM
[18] = second compound 0.316 µM, first compound 10 µM
[19] = second compound 1 µM, first compound 0.0316 µM
[20] = second compound 1 µM, first compound 0.1 µM
[21] = second compound 1 µM, first compound 0.316 µM
[22] = second compound 1 µM, first compound 1 µM
[23] = second compound 1 µM, first compound 3.16 µM
[24] = second compound 1 µM, first compound 10 µM
[25] = second compound 3.16 µM, first compound 0.0316 µM
[26] = second compound 3.16 µM, first compound 0.1 µM
[27] = second compound 3.16 µM, first compound 0.316 µM
[28] = second compound 3.16 µM, first compound 1 µM
[29] = second compound 3.16 µM, first compound 3.16 µM
[30] = second compound 3.16 µM, first compound 10 µM
[31] = second compound 10 µM, first compound 0.0316 µM
[32] = second compound 10 µM, first compound 0.1 µM
[33] = second compound 10 µM, first compound 0.316 µM
[34] = second compound 10 µM, first compound 1 µM
[35] = second compound 10 µM, first compound 3.16 µM
[36] = second compound 10 µM, first compound 10 µM
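Note: spheroids exposed to agents for seven days before readout.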
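Throughout, for viability, T/C: percent of vehicle control viability where 100% = DMSO wells.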

COc1cccc2c1C(=O)c1c(O)c3c(c(O)c1C2=O)CC(O)(C(=O)CO)CC3OC1CC(N)C(O)C(C)O1 (centres undefined) + CN(C)c1ccc(Nc2c3ccc(NC(=O)CCN4CCCC4)cc3nc3cc(NC(=O)CCN4CCCC4)ccc23)cc1
IC50 (second compound 0.0316 µM): 2170 nM | IC50 (second compound 0.1 µM): 2010 nM | IC50 (second compound 0.316 µM): 1730 nM | IC50 (second compound 1 µM): 1580 nM | IC50 (second compound 3.16 µM): 1620 nM | IC50 (second compound 10 µM): 1110 nM | viability, T/C [1]: 101% | viability, T/C [2]: 96.3% | viability, T/C [3]: 96.2% | viability, T/C [4]: 73.9% | viability, T/C [5]: 38.1% | viability, T/C [6]: 1.56% | viability, T/C [7]: 89.4% | viability, T/C [8]: 95.5% | viability, T/C [9]: 81% | viability, T/C [10]: 73.6% | viability, T/C [11]: 35.4% | viability, T/C [12]: 2.82% | viability, T/C [13]: 88.6% | viability, T/C [14]: 87.8% | viability, T/C [15]: 80.7% | viability, T/C [16]: 55.3% | viability, T/C [17]: 40.5% | viability, T/C [18]: 1.92% | viability, T/C [19]: 81.1% | viability, T/C [20]: 75% | viability, T/C [21]: 68.6% | viability, T/C [22]: 57% | viability, T/C [23]: 39.8% | viability, T/C [24]: 1.53% | viability, T/C [25]: 83.8% | viability, T/C [26]: 71% | viability, T/C [27]: 78.7% | viability, T/C [28]: 59.2% | viability, T/C [29]: 35.1% | viability, T/C [30]: 1.32% | viability, T/C [31]: 74.2% | viability, T/C [32]: 79.7% | viability, T/C [33]: 59.1% | viability, T/C [34]: 52.5% | viability, T/C [35]: 32.7% | viability, T/C [36]: 1.06%

O=C(c1cc(Cc2n[nH]c(=O)c3ccccc23)ccc1F)N1CCN(C(=O)C2CC2)CC1 + CN(C)c1ccc(Nc2c3ccc(NC(=O)CCN4CCCC4)cc3nc3cc(NC(=O)CCN4CCCC4)ccc23)cc1
IC50 (second compound 0.0316 µM): > 10000 nM | IC50 (second compound 0.1 µM): > 10000 nM | IC50 (second compound 0.316 µM): > 10000 nM | IC50 (second compound 1 µM): > 10000 nM | IC50 (second compound 3.16 µM): > 10000 nM | IC50 (second compound 10 µM): > 10000 nM | viability, T/C [1]: 117% | viability, T/C [2]: 93.1% | viability, T/C [3]: 89.7% | viability, T/C [4]: 92.4% | viability, T/C [5]: 95.3% | viability, T/C [6]: 88.8% | viability, T/C [7]: 101% | viability, T/C [8]: 100% | viability, T/C [9]: 103% | viability, T/C [10]: 106% | viability, T/C [11]: 85.3% | viability, T/C [12]: 72.5% | viability, T/C [13]: 90.6% | viability, T/C [14]: 88.1% | viability, T/C [15]: 105% | viability, T/C [16]: 93.5% | viability, T/C [17]: 97.1% | viability, T/C [18]: 80% | viability, T/C [19]: 83.3% | viability, T/C [20]: 80% | viability, T/C [21]: 87% | viability, T/C [22]: 73.3% | viability, T/C [23]: 76.7% | viability, T/C [24]: 63.8% | viability, T/C [25]: 79.4% | viability, T/C [26]: 65.2% | viability, T/C [27]: 84.4% | viability, T/C [28]: 73.2% | viability, T/C [29]: 70.5% | viability, T/C [30]: 69.5% | viability, T/C [31]: 72.1% | viability, T/C [32]: 74.2% | viability, T/C [33]: 69.9% | viability, T/C [34]: 75.9% | viability, T/C [35]: 90.1% | viability, T/C [36]: 69.6%
